Patent US20150354006A1, “MARKERS FOR ACUTE LYMPHOBLASTIC LEUKEMIA” (Novartis AG, priority 2012, published 2015)

Experiments:
JVM-3 line = experiment: NSD2 Tet-inducible cellular proliferation assay, JVM-3 cells; type: cell-based; details: JVM-3 line (no E1099K), shRNA induced vs U6-empty control, FIG. 14
Method: (§1) To test the hypothesis that the NSD2 E1099K mutation is important in the pathogenesis of ALL cells, several shRNA knockdown experiments were done. In these experiments, NSD2 shRNA sequences were cloned into pLKO-Tet-On vectors with the H1 promoter or U6 promoter. shRNA lentivitus was generated as described above. Cell lines were infected and selected by puromycin. All tet inducible shRNA cell lines are cultured using tet system approved FBS (Clontech, Cat#: 631106, Mountain View, Calif.). NSD2 Tet-inducible cellular proliferation assay was set up as the following. Cultured cells were placed at 0.2 million cells/ml in 10 ml and split into two wells (5 ml/well) in a 6-well plate. Doxycycline (100 ng/ml final) was added to one well at assay initiation and every 2-3 days to induce NSD2 Tet-inducible shRNAs. On days 4 and 8 the assayed cells (with and without doxycycline) were counted for viability and cell concentration (10^6 cell/ml) with Vi-cell. Assayed cells were then reset to 0.2×10^6 cells/ml in 5 ml every 4 days to keep the cells proliferating in log-phase. On day 8, 1 million cells were collected from assayed cells for Western blot analysis. The shRNA sequences used in the experiments were the following, and are used with this nomenclature in FIG. 13.
(§2) The shRNAs described above were then used in a cell proliferation assay. […]

[1] = system: H3K36me2 and H3K27me3 methylation; experiment: Western blot of histone H3 methylation status after shRNA knockdown in SEM cells; type: cell-based; details: NSD2 E1099K knocked down, FIG. 16
Method: NSD2 shRNA sequences were cloned into pLKO-Tet-On vectors with H1 promoter or U6 promoter. shRNA lentivitus was generated as described above. Cell lines were infected and selected by puromycin. All tet inducible shRNA cell lines are cultured using tet system approved FBS (Clontech, Cat#: 631106). The NSD2 Tet-inducible cellular proliferation assay was set up as follows. Cultured cells were placed at 0.2 million cells/ml in 10 ml and split into two wells (5 ml/well) in 6-well plate. Doxycycline (100 ng/ml final) was added to one well at assay initiation and every 2-3 days to induce NSD2 Tet-inducible shRNAs. On days 4 and 8 the assayed cells (with and without doxycycline) were counted for viability and cell concentration (10^6 cell/ml) with Vi-cell. Assayed cells were then reset to 0.2×10^6 cells/ml in 5 ml every 4 days to keep the cells proliferating in log-phase. On days 8, 1 million cells were collected from assayed cells for Western blot analysis. The shRNA sequences used in the experiments were the V17 (SEQ ID NO. 9) and 9A5 (SEQ ID NO. 10) as described in Example 11 above.
For example, this is clearly seen in SEM cells wherein NSD2 E1099K is knocked down with […]. The amount of NSD2 present is very low, as is H3K36me2 methylation.

SEM cells = experiment: NSD2 Tet-inducible cellular proliferation assay, SEM cells; type: cell-based; details: SEM cells (E1099K), shRNA induced vs U6-empty control, FIG. 14
Method: as §1, §2

NSD2 = experiment: Western blot of NSD2 knockdown by inducible shRNA in ALL cell lines; type: cell-based, human; details: induced with doxycycline, FIG. 13
Method: as §1, with “13. […]” for “13.”

KMS-11 cells = experiment: KMS11-luciferase intravenous multiple myeloma mouse model with doxycycline-inducible NSD2 shRNA; type: in vivo, SCID-beige mice
Method: Six- to eight-week-old female SCID-beige mice (Vital River, Beijing, China) were injected intravenously with 10^7 KMS-11 cells stably transduced with inducible NSD2 shRNA (sh4: 5′ ACATGCTCACTATAGACAA′3 (SEQ ID NO:8)) and tagged with luciferase. The injection of KMS11 cells was in 100 μl PBS with 50% Matrigel, with 8-10 mice per group/treatment. To induce the shRNA expression, mice were fed with water containing 5% sucrose and 0.2 mg/ml doxycycline. Images were taken weekly (with 200 μl/mouse D-luciferase intraperitoneal injection), and pathology such as paralysis was monitored.

Substance | reduction of cell proliferation (JVM-3 line) | H3K27me3 methylation [1] | amount of NSD2 and H3K36me2 methylation [1] | reduction of cell proliferation (SEM cells) | expression of NSD2 and MMSET1 (NSD2) | tumor growth (KMS-11 cells; KMS11-luciferase with inducible NSD2 shRNA, induction with doxycycline for 29 days, FIG. 3A) | luciferase activity of tumors (KMS-11 cells; time course with vs without doxycycline induction, FIG. 3B)
9A5 shRNA: NSD2 shRNA 5' GAATAAGCCTTACGGGAAA 3' (SEQ ID NO. 10), targets NSD2 isoforms containing the SET domain | about 15% | robust H3K27me3 methylation | very low | about 60% | capable of reducing expression of NSD2 and MMSET1 | – | –
sh4: inducible NSD2 shRNA, 5' ACATGCTCACTATAGACAA 3' (SEQ ID NO:8) | – | – | – | – | – | greatly inhibited tumor growth | greatly reduced
